Assays:
[1] = Cell viability/toxicity by the MTT method; assay type: cell-based; conditions: human, effect of the compound per se on AREc332 cells
Description: (§1) Based on the results obtained (Table 2), Compound 1 was selected for further in vitro and in vivo studies as it was endowed with the best anti-neuroinflammatory activity. Table 2: Comparative in vitro results. Cell viability/toxicity: effect of the compound per se on cell viability of […] cells measured with the MTT method. Anti-neuroinflammatory effect: % Reduction of nitrites in primary rat glial cultures. PAMPA-BBB: In vitro blood-brain barrier permeation assay, permeation rate Pe (10-6 cm.s-1). NRF2, CD (µM): Concentration of compound that doubles de activation of NRF2. ORAC: Oxygen radical absorbance capacity. LOX-5: lipoxygenase-5.

[2] = tested on: primary rat glial cultures; assay: Anti-neuroinflammatory screening in LPS-treated primary glial cultures (Griess, normalized by MTT); assay type: cell-based; conditions: % reduction of nitrites, LPS alone = 100 % inflammation, read-out: Anti-neuro inflammatory effect at 3 µM (%)
Procedure: Screening for anti-inflammatory properties in primary rat glial cultures was performed according to the protocol described previously [Gameiro, Isabel et al. "Discovery of the first dual GSK3β inhibitor/Nrf2 inducer. A new multitarget therapeutic strategy for Alzheimer's disease." Scientific reports vol. 7 45701. 31 Mar. 2017, doi:10.1038/srep45701]. All compounds were evaluated at the single concentration of 3 µM. Neuroinflammation was quantified as the value of released […], measured by the Griess method, normalized by the number of viable cells measured by the MTT method [Mosmann, T. "Rapid colorimetric assay for cellular growth and survival: application to proliferation and cytotoxicity assays." Journal of immunological methods vol. 65, 1-2 (1983): 55-63. doi:10.1016/0022-1759(83)90303-4]. LPS alone was considered 100 % inflammation.
as §1

[3] = In vitro blood-brain barrier permeation assay (PAMPA-BBB); assay type: in vitro ADME; conditions: for Papp: PAMPA, permeation rate, mean ± SD, read-out: PAMPA-BBB Pe
Description: The in vitro blood-brain barrier permeation assay (PAMPA-BBB) was used for predicting the brain penetration of compounds, following a described method [Herrera-Arozamena, Clara et al. "Resveratrol-Based MTDLs to Stimulate Defensive and Regenerative Pathways and Block Early Events in Neurodegenerative Cascades." Journal of medicinal chemistry vol. 65,6 (2022): 4727-4751. doi:10.1021/acs.jmedchem.1c01883]. The results are given as the mean ± SD. In each experiment, 11 quality control standards of known BBB permeability were included to validate the analysis set.

NRF2 = NRF2 induction, luciferase activity in AREc32 cells; assay type: cell-based; conditions: concentration that doubles the activation of NRF2, read-out: NRF2 CD
Description: Screening of NRF2 induction was quantified by luciferase activity in AREc32 cells as described in [Herrera-Arozamena, Clara et al. "Tuning melatonin receptor subtype selectivity in oxadiazolone-based analogues: Discovery of QR2 ligands and NRF2 activators with neurogenic properties." European journal of medicinal chemistry vol. 190 (2020): 112090. doi:10.1016/j.ejmech.2020.112090].
as §1

[4] = Oxygen Radical Absorbance Capacity Assay (ORAC); assay type: physicochemical; conditions: ORAC > 1.0 is a better ROS scavenger than trolox
Procedure: The Oxygen Radical Absorbance Capacity Assay (ORAC) was performed as described [Herrera-Arozamena, Clara et al. "Resveratrol-Based MTDLs to Stimulate Defensive and Regenerative Pathways and Block Early Events in Neurodegenerative Cascades." Journal of medicinal chemistry vol. 65,6 (2022): 4727-4751. doi:10.1021/acs.jmedchem.1c01883].

[5] = target: T1, human lipoxygenase-5 (hLOX-5) (Homo sapiens, UniProt P09917); assay: Inhibition of human lipoxygenase-5; assay type: biochemical; conditions: mean ± SD of three independent experiments in triplicate; read-out: LOX5 IC50
T1 sequence (P09917 1-674): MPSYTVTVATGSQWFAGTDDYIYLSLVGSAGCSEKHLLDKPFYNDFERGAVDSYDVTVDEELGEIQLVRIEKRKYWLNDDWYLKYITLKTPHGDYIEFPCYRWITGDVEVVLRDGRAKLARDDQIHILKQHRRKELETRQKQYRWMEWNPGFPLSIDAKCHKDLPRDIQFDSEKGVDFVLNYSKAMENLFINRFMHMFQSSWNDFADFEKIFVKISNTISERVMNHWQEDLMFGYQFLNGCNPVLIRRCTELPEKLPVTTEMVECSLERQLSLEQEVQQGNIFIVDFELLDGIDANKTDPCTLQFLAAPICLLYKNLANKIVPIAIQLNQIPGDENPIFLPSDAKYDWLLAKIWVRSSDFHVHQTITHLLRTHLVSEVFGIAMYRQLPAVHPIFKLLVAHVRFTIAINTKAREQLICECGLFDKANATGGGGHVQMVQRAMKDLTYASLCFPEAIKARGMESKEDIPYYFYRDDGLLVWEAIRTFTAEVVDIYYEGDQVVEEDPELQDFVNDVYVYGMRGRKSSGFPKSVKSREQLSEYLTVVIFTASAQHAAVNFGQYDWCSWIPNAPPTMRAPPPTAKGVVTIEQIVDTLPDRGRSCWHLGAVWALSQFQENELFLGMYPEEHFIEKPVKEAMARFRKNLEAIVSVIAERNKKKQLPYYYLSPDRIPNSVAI
Procedure: The inhibition of human lipoxygenase-5 (hLOX-5) was performed as described [Herrera-Arozamena, Clara et al. "Tuning melatonin receptor subtype selectivity in oxadiazolone-based analogues: Discovery of QR2 ligands and NRF2 activators with neurogenic properties." European journal of medicinal chemistry vol. 190 (2020): 112090. doi:10.1016/j.ejmech.2020.112090], Data are the mean ± SD of three independent experiments performed in triplicate.

SMILES	CC50 [1] [µM]	inhibition at 3 µM [2] [%]	PAMPA-BBB predicted brain penetration [3]	Papp [3] [×10⁻⁶ cm/s]	EC (2-fold activation) (NRF2) [µM]	ORAC (trolox equiv.) [4] [trolox equiv.]	IC50 [5] [µM]
Clc1ccc2c(c1)CC(c1c[nH]c3ccc(Cl)cc13)N2 (stereo not shown) [Compound 4, 5-Chloro-3-(5-chloroindolin-2-yl)-1H-indole]	10 to 30	29.6 ± 9.4	cns+	5.2 ± 0.4	2.04 ± 0.2	1.6 ± 0.2	4.57 ± 0.25
COc1ccc2[nH]c(-c3c[nH]c4ccc(OC)cc34)cc2c1 [Compound 2, 5,5'-Dimethoxy-1H,1'H-2,3'-biindole]	3 to 10	33.2 ± 11.8	cns+	8.7 ± 0.6	0.329 ± 0.017	1.5 ± 0.2	0.42 ± 0.03
COc1cccc2c1NC(c1c[nH]c3c(OC)cccc13)C2 (stereo not shown) [Compound 6, 7-Methoxy-3-(7-methoxyindolin-2-yl)-1H-indole]	> 30	45 ± 8.7	cns+	18.5 ± 0.8	3.27 ± 0.25	1.0 ± 0.1	> 100
FC(F)(F)c1ccc2c(c1)CC(c1c[nH]c3ccc(C(F)(F)F)cc13)N2 (stereo not shown) [Compound 7, 5-(Trifluoromethyl)-3-(5-(trifluoromethyl)indolin-2-yl)-1H-indole]	10 to 30	45 ± 7.1	cns+	18.1 ± 0.9	> 30	1.3 ± 0.1	6.63 ± 0.21
c1ccc2c(c1)CC(c1c[nH]c3ccccc13)N2 (stereo not shown) [Compound 3, 3-(Indolin-2-yl)-1H-indole]	> 30	24.4 ± 6.7	cns+	11.5 ± 0.8	0.0713 ± 0.031	1.9 ± 0.1	2.89 ± 0.44
Clc1ccc2[nH]c(-c3c[nH]c4ccc(Cl)cc34)cc2c1 [Compound 5, 5,5'-Dichloro-1H,1'H-2,3'-biindole]	> 30	30 ± 10	cns+	10.9 ± 0.7	2.57 ± 0.68	0.5 ± 0.1	> 100
C#CCN1c2ccc(OC)cc2CC1c1cn(CC#C)c2ccc(OC)cc12 (stereo not shown) [Compound 8, 5-Methoxy-3-(5-methoxy-1-(prop-2-yn-1-yl)indolin-2-yl)-1-(prop-2-yn-1-yl)-1H-indole]	> 30	37 ± 11	cns+	8.3 ± 0.3	10.7 ± 1.3	1.3 ± 0.1	0.53 ± 0.02
